Target: T1, PDE5A1 (Homo sapiens, UniProt O76074)
T1 construct: from tissue; host or cells: human platelets from fresh donor blood (10,000 x g supernatant of sonicated lysate)
Assay: Inhibition of type 5 phosphodiesterase (PDE5) activity, modified SPA test with human platelet lysate
Assay type: biochemical
Details: 0.5 μM cGMP, read-out: PDE5A1 inhibitory values [measured as −log IC50 (mol/l)] (converted)
Experimental: Method for Measuring Inhibition of the Type 5 Phosphodiesterase (PDE5) Activity:
As a source for human PDE5, platelets are used. For that purpose, 150 ml fresh blood from human donors anticoagulated with citrate [final concentration 0.3% (w/v)] is centrifuged at 200 g for 10 min to obtain the so-called platelet-rich-plasma (PRP) as a supernatant. 1/10 volume of ACD solution (85 mM Na3-citrate, 111 mM D-glucose, 71 mM citric acid, pH 4.4) is added to 9/10 volume of PRP. After centrifugation (1,400 g, 10 min) the cell pellet is resuspended in 3 ml homogenization buffer (NaCl 140 mM, KCl 3.8 mM, EGTA (ethylene glycol tetraacetic acid) 1 mM, MgCl2 1 mM, Tris-HCl 20 mM, beta-mercaptoethanol 1 mM, pH 8.2) plus protease-inhibitor mix giving rise to the final concentrations of 0.5 mM Pefablock (Roche), 10 μM Leupeptin, 5 μM Trypsininhibitor, 2 mM Benzamidin and 10 μM Pepstatin A. The suspension is sonified and thereafter centrifuged for 15 min at 10,000 g. The resulting supernatant (platelet lysate) is used for enzymatic testings.
PDE5A1 activity is inhibited by the compounds of the present subject matter in a modified SPA (scintillation proximity assay) test, supplied by Amersham Biosciences (see procedural instructions “phosphodiesterase [3H]cAMP SPA enzyme assay, code TRKQ 7090”), carried out in 96-well microtitre plates (MTP's). The test volume is 100 μl and contains 20 mM Tris buffer (pH 7.4), 0.1 mg of BSA (bovine serum albumin)/ml, 5 mM Mg^2+, 1 μM motapizone, 10 nM PDE2 inhibitor 2-(3,4-dimethoxybenzyl)-7-[(1R,2R)-2-hydroxy-1-(2-phenylethyl)propyl]-5-methylimidazo[5,1-f][1,2,4]triazin-4(3H)-one, 0.5 μM cGMP (cyclic guanosine monophosphate) (including about 50,000 cpm of [3H]cGMP as a tracer), 1 μl of the respective compound dilution in dimethylsulfoxide (DMSO) and sufficient PDE5-containing platelet lysat (10,000×g supernatant, see above) to ensure that 10-20 wt % of the cGMP is converted under the said experimental conditions. […] After a preincubation of 5 min at 37° C., the reaction is started by adding the substrate (cGMP) and the assay is incubated for a further 15 min; after that, it is stopped by adding SPA beads (50 μl). In accordance with the manufacturer's instructions, the SPA beads had previously been resuspended in water, but are then diluted 1:3 (v/v) in water; the diluted solution also contains 3 mM […] (IBMX) to ensure a complete PDE activity stop. After the beads have been sedimented (>30 min), the MTP's are analyzed in commercially available luminescence detection devices. The corresponding IC50 values of the compounds for the inhibition of PDE activity are determined from the concentration-effect curves by means of non-linear regression.

IC50	Compound
< 1 nM	COCC(=O)N[C@H]1CC[C@@H](NC(=O)c2c(C)[nH]c3c(-c4cc(F)c(OC)cc4OCC4CC4)ncnc23)CC1 [Example E140, 4-[2-(Cyclopropylmethoxy)-5-fluoro-4-methoxyphenyl]-N-{cis-4-[(methoxyacetyl)amino]cyclohexyl}-6-methyl-5H-pyrrolo[3,2-d]pyrimidine-7-carboxamide]
< 1 nM	COc1ccc(OCC2CC2)c(-c2ncnc3c(C(=O)N[C@@H]4CCN(C(C)=O)C4)c(C)[nH]c23)c1 [Example E75, N-[(3R)-1-acetylpyrrolidin-3-yl]-4-[2-(cyclopropylmethoxy)-5-methoxyphenyl]-6-methyl-5H-pyrrolo[3,2-d]pyrimidine-7-carboxamide]
< 1 nM	COc1ccc(OCC2CC2)c(-c2ncnc3c(C(=O)N[C@@H]4CCN(C(=O)CO)C[C@H]4O)c(C)[nH]c23)c1 (relative stereo) [Example F49, 4-[2-(Cyclopropylmethoxy)-5-methoxyphenyl]-N-[(3R*,4R*)-3-hydroxy-1-(hydroxyacetyl)piperidin-4-yl]-6-methyl-5H-pyrrolo[3,2-d]pyrimidine-7-carboxamide]
< 1 nM	COc1cc(OCC2CC2)c(-c2ncnc3c(C(=O)NC4CCN(C(=O)CO)CC4)c(C)[nH]c23)cc1F [Example F83, 4-[2-(Cyclopropylmethoxy)-5-fluoro-4-methoxyphenyl]-N-(1-glycoloylpiperidin-4-yl)-6-methyl-5H-pyrrolo[3,2-d]pyrimidine-7-carboxamide]
< 1 nM	CCOC(=O)N1CC[C@@H](NC(=O)c2c(C)[nH]c3c(-c4cc(OC)c(F)cc4OCC4CC4)ncnc23)C1 [Example E182, Ethyl (3R)-3-[({4-[2-(cyclopropylmethoxy)-4-fluoro-5-methoxyphenyl]-6-methyl-5H-pyrrolo[3,2-d]pyrimidin-7-yl}carbonyl)amino]pyrrolidine-1-carboxylate]
< 1 nM	CCC(=O)N[C@H]1CC[C@H](NC(=O)c2c(C)[nH]c3c(-c4ccc(F)cc4OCC4CC4)ncnc23)CC1 [Example E23, 4-[2-(Cyclopropylmethoxy)-4-fluorophenyl]-6-methyl-N-[trans-4-(propionylamino)cyclohexyl]-5H-pyrrolo[3,2-d]pyrimidine-7-carboxamide]
< 1 nM	COc1cc(OCC2CC2)c(-c2ncnc3c(C(=O)N[C@H]4CC[C@H](NC(=O)[C@H](C)O)CC4)c(C)[nH]c23)cc1F [Example F86, 4-[2-(Cyclopropylmethoxy)-5-fluoro-4-methoxyphenyl]-N-(trans-4-{[(25)-2-hydroxypropanoyl]amino}cyclohexyl)-6-methyl-5H-pyrrolo[3,2-d]pyrimidine-7-carboxamide]
1 to 10 nM	CC(=O)N1CC[C@@H](NC(=O)c2c(C)[nH]c3c(-c4cc(F)ccc4OCC4CC4)ncnc23)[C@H](O)C1 (relative stereo) [Example E49, N-[(3R*,4R*)-1-acetyl-3-hydroxypiperidin-4-yl]-4-[2-(cyclopropylmethoxy)-5-fluorophenyl]-6-methyl-5H-pyrrolo[3,2-d]pyrimidine-7-carboxamide]
< 1 nM	CCC(=O)N1CC[C@@H](NC(=O)c2c(C)[nH]c3c(-c4cc(F)c(OC)cc4OCC4CC4)ncnc23)C1 [Example E187, 4-[2-(Cyclopropylmethoxy)-5-fluoro-4-methoxyphenyl]-6-methyl-N-[(3R)-1-propionylpyrrolidin-3-yl]-5H-pyrrolo[3,2-d]pyrimidine-7-carboxamide]
< 1 nM	Cc1[nH]c2c(-c3ccc(F)cc3OCC3CC3)ncnc2c1C(=O)N[C@H]1CC[C@@H](NC(=O)CO)CC1 [Example F15, 4-[2-(cyclopropylmethoxy)-4-fluorophenyl]-N-[cis-4-(glycoloylamino)cyclohexyl]-6-methyl-5H-pyrrolo[3,2-d]pyrimidine-7-carboxamide]
< 1 nM	CC(=O)c1ccc(OCC2CC2)c(-c2ncnc3c(C(=O)NC4CCN(C(C)=O)CC4)c(C)[nH]c23)c1 [Example E163, 4-[5-Acetyl-2-(cyclopropylmethoxy)phenyl-]-N-(1-acetylpiperidin-4-yl)-6-methyl-5H-pyrrolo[3,2-d]pyrimidine-7-carboxamide]
1 to 10 nM	Cc1[nH]c2c(-c3ccc(F)cc3OCC3CC3)ncnc2c1C(=O)N[C@@H]1CCN(C(=O)CO)C1 [Example F17, 4-[2-(Cyclopropylmethoxy)-4-fluorophenyl]-N-[(3R)-1-(hydroxyacetyl)pyrrolidin-3-yl]-6-methyl-5H-pyrrolo[3,2-d]pyrimidine-7-carboxamide]
< 1 nM	CCC(=O)N1CC[C@@H](NC(=O)c2c(C)[nH]c3c(-c4c(OCC5CC5)ccc5c4OCO5)ncnc23)C1 [Example E14, 4-[5-(Cyclopropylmethoxy)-1,3-benzodioxol-4-yl]-6-methyl-N-[(3R)-1-propionylpyrrolidin-3-yl]-5H-pyrrolo[3,2-d]pyrimidine-7-carboxamide]
1 to 10 nM	COCC(=O)N1CC[C@H](NC(=O)c2c(C)[nH]c3c(-c4ccc(F)cc4OCC4CC4)ncnc23)[C@@H](O)C1 (relative stereo) [Example E36, 4-[2-(Cyclopropylmethoxy)-4-fluorophenyl]-N-[(3S*,4S*)-3-hydroxy-1-(methoxyacetyl)piperidin-4-yl]-6-methyl-5H-pyrrolo[3,2-d]pyrimidine-7-carboxamide]
< 1 nM	CCC(=O)N[C@H]1CC[C@H](NC(=O)c2c(C)[nH]c3c(-c4cc(OC)c(F)cc4OCC4CC4)ncnc23)CC1 [Example E107, 4-[2-(Cyclopropylmethoxy)-4-fluoro-5-methoxyphenyl]-6-methyl-N-[trans-4-(propionylamino)cyclohexyl]-5H-pyrrolo[3,2-d]pyrimidine-7-carboxamide]
1 to 10 nM	Cc1[nH]c2c(-c3ccc(F)cc3OCC3CC3)ncnc2c1C(=O)N[C@H]1CCN(C(=O)CO)C[C@@H]1O (relative stereo) [Example F21, 4-[2-(Cyclopropylmethoxy)-4-fluorophenyl]-N-[(3S*,4S*)-3-hydroxy-1-(hydroxyacetyl)piperidin-4-yl]-6-methyl-5H-pyrrolo[3,2-d]pyrimidine-7-carboxamide]
< 1 nM	COc1ccc(-c2ncnc3c(C(=O)N[C@@H]4CCN(C(=O)CO)C4)c(C)[nH]c23)c(OCC2CC2)c1 [Example F37, 4-[2-(Cyclopropylmethoxy)-4-methoxyphenyl]-N-[(3R)-1-glycoloylpyrrolidin-3-yl]-6-methyl-5H-pyrrolo[3,2-d]pyrimidine-7-carboxamide]
< 1 nM	CCOc1ccc(C(F)(F)F)cc1-c1ncnc2c(C(=O)NC3CCN(C(C)=O)CC3)c(C)[nH]c12 [Example E99, N-(1-acetylpiperidin-4-yl)-4-[2-ethoxy-5-(trifluoromethyl)phenyl]-6-methyl-5H-pyrrolo[3,2-d]pyrimidine-7-carboxamide]
< 1 nM	COCC(=O)N1C[C@@H](O)[C@H](NC(=O)c2c(C)[nH]c3c(-c4ccc(OC)cc4OCC4CC4)ncnc23)C1 (relative stereo) [Example E65, 4-[2-(Cyclopropylmethoxy)-4-methoxyphenyl]-N-[(3R*,4R*)-4-hydroxy-1-(methoxyacetyl)pyrrolidin-3-yl]-6-methyl-5H-pyrrolo[3,2-d]pyrimidine-7-carboxamide]
1 to 10 nM	CCC(=O)N1CC[C@@H](NC(=O)c2c(C)[nH]c3c(-c4cc(F)ccc4OCC4CC4)ncnc23)[C@H](O)C1 (relative stereo) [Example E50, 4-[2-(Cyclopropylmethoxy)-5-fluorophenyl]-N-[(3R*,4R*)-3-hydroxy-1-propanoylpiperidin-4-yl]-6-methyl-5H-pyrrolo[3,2-d]pyrimidine-7-carboxamide]
< 1 nM	Cc1ccc(OCC2CC2)c(-c2nc(C)nc3c(C(=O)NC4CCN(C(=O)[C@H](C)O)CC4)c(C)[nH]c23)c1 [Example F107, 4-[2-(Cyclopropylmethoxy)-5-methylphenyl]-N-{1-[(2S)-2-hydroxypropanoyl]piperidin-4-yl}-2,6-dimethyl-5H-pyrrolo[3,2-d]pyrimidine-7-carboxamide]
< 1 nM	CCOc1ccc(C(F)(F)F)cc1-c1ncnc2c(C(=O)NC3CCN(C(=O)CO)CC3)c(C)[nH]c12 [Example F63, 4-[2-Ethoxy-5-(trifluoromethyl)phenyl]-N-[1-(hydroxyacetyl)piperidin-4-yl]-6-methyl-5H-pyrrolo[3,2-d]pyrimidine-7-carboxamide]

From patent publication US9376442B2, “Methylpyrrolopyrimidinecarboxamides” (Takeda GmbH, priority 2009, dated 2016)
